How the values were obtained:
[1] = test system: CSM14.1 neuronal cells; assay: Cell survival assay (thapsigargin-induced cell death, CELLTITER-GLO); assay type: cell-based; settings: compound 2 hrs before about 15 μM thapsigargin, overnight (about 16 to 24 hrs), luminescence
Description: CSM14.1 neuronal cells were maintained in Complete Medium at 32° C.; wherein the Complete Medium contained Dulbecco's modified eagle medium (DMEM) with 10% fetal bovine serum (FSB), 1% L-glutamine, 100 IU/mL penicillin, and 100 μg/mL streptomycin. The cells were recovered from cultures by trypsinization and then seeded in 384 well plates (Greiner #781098) at a concentration of 1,000 cells/well in 20 μL of DMEM Assay Medium, wherein the DMEM Assay Medium contained 2% FBS, 100 IU/mL penicillin, and 100 μg/mL streptomycin. Seeding was performed using a MultiDrop Combi reagent broadcaster. The plates were incubated overnight at 32° C. A test compound was prepared by 2-fold serial dilution in 100% DMSO using a BIOMEK® 2000 liquid handler (Beckman Coulter). A dose-response curve containing 10 concentrations of the test compound was obtained. Using a BIOMEK® FX liquid handler (Beckman Coulter), 2.5 μL of the test compound was transferred from the 100% DMSO serial dilution plate to an intermediate plate containing 47.5 μL of DMEM Assay Medium containing 2% FBS, 100 IU/mL penicillin, and 100 μg/mL streptomycin and mixed. To reduce or eliminate the interference from the compound's precipitation, 6 μL of the diluted compound was immediately transferred to the assay plate to achieve a high compound concentration of 100 μM in 99% DMEM Assay Medium and 1% DMSO. After the assay plates were incubated for 2 hrs, 4 μL of 112.5 μM thapsigargin (TG) (DMSO stock diluted into Assay TC Medium) was dispensed into each testing well with a MultiDrop Combi reagent broadcaster for a final concentration of about 15 μM TG. The tissue culture media (4 μL) containing vehicle only was transferred manually to each control cell using a 16 channel electronic pipette. After the plates were incubated overnight (about 16 to 24 hrs), CELLTITER-GLO® (Promega) (16 μL) was added to all wells and luminescence was measured. High luminescence indicates cell survival. The biological results are summarized in Table 1 where A represents a cell viability EC50 less than or equal to 1 μM, B represents a value greater than 1 μM and less than 10 μM, and C represents a value equal to or greather than 10 μM and less than 20 μM.

[2] = test system: Ob/ob mice; assay: Effect of a SERCA agonist on the level of blood glucose; assay type: in vivo; settings: Mus musculus, ip, 96 h, 50 mg/kg i.p. once a day for 5 days, fasting glucose at baseline and 4 days after administration, read-out: Glucose level reduction
Description: Ob/ob mice (10 weeks old, n=7) were intraperitoneally (i.p.) injected with 100 μL of a solution containing 0 (vehicle) or 50 mg/kg of a test compound once a day for a total of 5 days. Fasting glucose was measured at baseline and 4 days after the administration of the test compound. Glucose levels were measured in blood samples drawn from the tail vein using a handheld glucose sensor. Compound effects on blood glucose are shown in Table 5 where A represents a 10-20% reduction in blood glucose, B represents a 21-30% reduction in blood glucose, and C represents a greather than 30% reduction in blood glucose levels.

[3] = target: T1, SERCA (Homo sapiens, UniProt P16615); assay: Ca-ATPase assay (NADH-linked, enzyme-coupled ATPase assay); assay type: biochemical; settings: microsomal preparations from HEK 293 cells; Vmax from fit of ATPase calcium-dependence to the Hill function, relative to controls
T1 construct: microsomal preparations from HEK 293 cells; endogenous in cells; host or cells: HEK 293 cells (microsomal preparation)
T1 sequence (P16615 whole entry): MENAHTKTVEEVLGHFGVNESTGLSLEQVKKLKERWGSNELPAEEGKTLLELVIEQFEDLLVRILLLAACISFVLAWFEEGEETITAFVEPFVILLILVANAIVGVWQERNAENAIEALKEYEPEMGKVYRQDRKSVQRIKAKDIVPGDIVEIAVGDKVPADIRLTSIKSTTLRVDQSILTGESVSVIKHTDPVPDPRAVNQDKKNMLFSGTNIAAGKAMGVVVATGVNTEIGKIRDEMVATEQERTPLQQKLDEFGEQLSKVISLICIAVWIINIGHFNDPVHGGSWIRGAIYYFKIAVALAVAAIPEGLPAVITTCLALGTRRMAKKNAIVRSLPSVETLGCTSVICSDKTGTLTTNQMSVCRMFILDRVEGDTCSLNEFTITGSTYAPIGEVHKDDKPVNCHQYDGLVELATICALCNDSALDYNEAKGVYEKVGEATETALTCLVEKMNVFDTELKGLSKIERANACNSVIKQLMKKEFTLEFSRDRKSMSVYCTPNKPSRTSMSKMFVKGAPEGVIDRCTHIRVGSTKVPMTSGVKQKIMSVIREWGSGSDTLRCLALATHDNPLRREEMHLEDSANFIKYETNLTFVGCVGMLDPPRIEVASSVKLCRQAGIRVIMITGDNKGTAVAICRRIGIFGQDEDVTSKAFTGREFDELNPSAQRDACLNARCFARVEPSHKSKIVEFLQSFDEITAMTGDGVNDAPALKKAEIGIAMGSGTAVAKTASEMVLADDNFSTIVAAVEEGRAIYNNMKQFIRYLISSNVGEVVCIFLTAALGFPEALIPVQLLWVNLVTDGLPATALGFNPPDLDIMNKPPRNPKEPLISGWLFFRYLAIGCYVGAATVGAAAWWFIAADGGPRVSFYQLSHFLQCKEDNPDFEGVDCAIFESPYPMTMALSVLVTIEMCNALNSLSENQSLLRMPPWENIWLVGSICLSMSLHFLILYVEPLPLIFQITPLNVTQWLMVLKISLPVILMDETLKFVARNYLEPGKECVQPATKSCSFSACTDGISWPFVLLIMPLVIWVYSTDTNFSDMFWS
Description: A Ca-ATPase assay was performed using microsomal preparations from HEK 293 cells at a series of calcium concentrations corresponding to the physiological range, relative to controls. The ATP hydrolysis rate was measured over a range of calcium concentrations in the presence of test compounds using an NADH-linked, enzyme-coupled ATPase assay adapted for 96-well microplates, with Vmax determined by fitting the ATPase calcium-dependence to the Hill function. Each well contained 2 μg or 7 μg of SR vesicles (optimized for skeletal or cardiac SR, respectively), 50 mM MOPS (pH 7.0), 100 mM KCl, 5 mM MgCl2, 1 mM EGTA, 0.2 mM NADH, 1 mM phosphoenol pyruvate, 5 IU pyruvate kinase, 5 IU lactate dehydrogenase, and 3.5 μg/mL A23187 (a calcium ionophore). CaCl2 was added to set free [Ca^2+] to the specific values. The assay was started upon addition of ATP at a final concentration of 5 mM, and read in a SpectraMax Plus microplate spectrophotometer. The results are summarized in Table 4, where A represents an increase in SERCA Vmax greater than or equal to 50% and B represents a value greater than 10% and less than 50%.

[4] = test system: Human embryonic kidney (HEK293) cells; mouse neuroblastoma (N2a) cells; assay: Cell rescue assay: protection against thapsigargin (TG)-induced cell-death (ALAMARBLUE); assay type: cell-based; settings: compound at 20 μM, 2 hrs before thapsigargin (15 μM for HEK293 cells, 1 μM for N2a cells), 24 hrs; viability as % RFU compared to control; cell line not given; read-out: Cell Survival %
Description: Protection against Thapsigargin (TG)-induced Cell-death. Human embryonic kidney (HEK293) cells were grown in Dulbecco's Modified Eagle's Medium (DMEM) with 10% FBS and 1% antibiotic antimycotic solution (ABAM). Mouse neuroblastoma (N2a) cells were grown in 1:1 DMEM:OPTI-MEM® with 5% FBS and 1% ABAM. All cells were grown in 10% CO2 in a humidified environment of the incubator. Cells grown in 96-well plates were exposed to a test compound (20 μM) for 2 hrs before addition of thapsigargin (15 μM for HEK293 cells and 1 μM for N2a cells) to induce ER stress. After incubation in cell-culture incubator for 24 hrs, ALAMARBLUE® regent (10% v/v) was added to the wells. Fluorescence reading was taken 2 hrs after the addition of the ALAMARBLUE® regent. Cell-viability was calculated as a percentage of relative fluorescence unit (RFU) compared to control. […] The biological results are summarized in Table 2, where each compound was tested at 20 μM and where A represents a viability greater than or equal to 50%, B represents a viability greather than 20% and less than 50%, and C represents a value from 10% to 20%.

[5] = test system: Human SH-SY5Y cells; assay: Cell rescue assay: protection against ß-amyloid-induced cell toxicity; assay type: cell-based; settings: 96 h, 7.5 uM compound, AB1-42 at 10 uM, 4 days, % cell rescue, read-out: Cell Survival %
Description: Protection against ß-amyloid-induced cell toxicity. Chonpathompikunlert et al. Eu. J. Pharmacol. 2011, 650, 544-549. Human SH-SY5Y cells are suspended in media containing 2% FBS and 2× Gentamicin. Transfer 100 ul/well culture to 96-well plate (20,000 cells/well; passage #5) and incubate overnight. Prepare compound samples at 30 uM. Add 50 ul of the samples to the cells [[…]] and incubate 3 hours. Make stock of 40 uM AB1-42 peptide in assay media. Transfer 50 ul/well to cells/compounds in assay plate. The final assay volume is 200 ul/well, containing 2% FBS, 2× Gentamicin, 7.5 uM compound and AB1-42 at 10 uM. Incubate for 4 days then add 20 ul of Promega Substrate Cell Titer 96 Aqueous One Solution Reagent to each well. Incubate 37° C. and read OD at 490 nm. The results are summarized in Table 3, where A represents a value equal to or greater than 50% cell rescue, B represents a value greater than 20% and less than 50% cell rescue, and C represents a value greater than 10% and less than or equal to 20% cell rescue.

SMILES	EC50 [1]	inhibition in vivo at 50 mg/kg [2]	SERCA Vmax Increase [3]	viability at 20 µM [4]	viability at 7.5 µM [5]
O=C(Nc1cccc2nccnc12)c1ccc(Cl)cc1 [A7, 4-Chloro-N-(quinoxalin-5-yl)benzamide]	≤ 1 µM	10 to 20%	B (B represents a value greater than 10% and less than 50%)	≥ 50%	20 to 50%
O=C(Nc1cccc2nccnc12)c1ccc(Br)s1 [A3, 5-Bromo-N-(quinoxalin-5-yl)thiophene-2-carboxamide]	10 to 20 µM	10 to 20%	A (A represents an increase in SERCA Vmax greater than or equal to 50%)	10 to 20%	20 to 50%
CC(C)Oc1cccc(C(=O)Nc2cccc3nccnc23)c1 [A8, 3-Isopropoxy-N-(quinoxalin-5-yl)benzamide]	10 to 20 µM	21 to 30%	B (B represents a value greater than 10% and less than 50%)	20 to 50%	20 to 50%
Cc1ccc(C(=O)Nc2cccc3nccnc23)s1 [A4, 5-Methyl-N-(quinoxalin-5-yl)thiophene-2-carboxamide]	1 to 10 µM	10 to 20%	A (A represents an increase in SERCA Vmax greater than or equal to 50%)	≥ 50%	≥ 50%
O=C(Nc1cccc2nccnc12)c1ccc(C(F)(F)F)cc1 [A9, N-(quinoxalin-5-yl)-4-(trifluoromethyl)benzamide]	≤ 1 µM	21 to 30%	A (A represents an increase in SERCA Vmax greater than or equal to 50%)	20 to 50%	10 to 20%
O=C(Nc1cccc2nccnc12)c1cccc(F)c1 [A10, 3-fluoro-N-(quinoxalin-5-yl)benzamide]	1 to 10 µM	> 30%	A (A represents an increase in SERCA Vmax greater than or equal to 50%)	10 to 20%	20 to 50%
O=C(Nc1cccc2nccnc12)c1cc2ccccc2s1 [A6, N-(Quinoxalin-5-yl)benzo[b]thiophene-2-carboxamide]	1 to 10 µM	10 to 20%	B (B represents a value greater than 10% and less than 50%)	10 to 20%	20 to 50%
O=C(Nc1cccc2nccnc12)c1cccs1 [A5, N-(Quinoxalin-5-yl)thiophene-2-carboxamide]	10 to 20 µM	> 30%	A (A represents an increase in SERCA Vmax greater than or equal to 50%)	10 to 20%	20 to 50%
CC(C)Oc1ccc(C(=O)Nc2cccc3nccnc23)cc1 [A1, 4-Isopropoxy-N-(quinoxalin-5-yl)benzamide]	1 to 10 µM	21 to 30%	A (A represents an increase in SERCA Vmax greater than or equal to 50%)	20 to 50%	≥ 50%
O=C(Nc1cccc2nccnc12)c1cc(Br)cs1 [A2, 4-Bromo-N-(quinoxalin-5-yl)thiophene-2-carboxamide]	1 to 10 µM	21 to 30%	B (B represents a value greater than 10% and less than 50%)	20 to 50%	10 to 20%

— patent US10730843B1, “Quinoxalines useful as cytoprotective agents” (priority 2019, dated 2020)
